ChEMBL document CHEMBL5257074, “Structure Elucidation and Biosynthesis of Nannosterols A and B, Myxobacterial Sterols from Nannocystis sp. MNa10993” (J Nat Prod, 2023)
Calls of active or inactive are those of the source.

Experiments:
[1] = test system: Pseudomonas aeruginosa; assay: Antibacterial activity against Pseudomonas aeruginosa PA14 (DSM 19882) assessed as inhibition of bacterial growth measured after 18 to 48 hrs by microbroth dilution assay; assay type: functional, organism-based; details: time 18-48 hrs
[2] = test system: Candida albicans; assay: Antifungal activity against Candida albicans DSM 1665 assessed as inhibition of fungal growth measured after 18 to 48 hrs by microbroth dilution assay; assay type: functional, organism-based; details: time 18-48 hrs
[3] = test system: Escherichia coli; assay: Antibacterial activity against Escherichia coli DSM 1116T assessed as inhibition of bacterial growth measured after 18 to 48 hrs by microbroth dilution assay; assay type: functional, organism-based; details: time 18-48 hrs
[4] = test system: Mycolicibacterium smegmatis; assay: Antibacterial activity against Mycobacterium smegmatis (DSM 43756) assessed as inhibition of bacterial growth measured after 18 to 28 hrs by microbroth dilution assay; assay type: functional, organism-based; details: time 18-28 hrs
[5] = test system: Escherichia coli; assay: Antibacterial activity against Escherichia coli JW0451-2 assessed as inhibition of bacterial growth measured after 18 to 48 hrs by microbroth dilution assay; assay type: functional, organism-based; details: time 18-48 hrs
[6] = test system: Staphylococcus aureus; assay: Antibacterial activity against Staphylococcus aureus Newman assessed as inhibition of bacterial growth measured after 18 to 28 hrs by microbroth dilution assay; assay type: functional, organism-based; details: time 18-28 hrs
[7] = test system: Mucor hiemalis; assay: Antifungal activity against Mucor hiemalis DSM 2656 assessed as inhibition of fungal growth measured after 18 to 48 hrs by microbroth dilution assay; assay type: functional, organism-based; details: time 18-48 hrs
[8] = test system: HepG2; assay: Antiproliferative activity against human HepG2 cells incubated for 5 days by MTT assay; assay type: functional, cell-based; details: time 5.0 day
[9] = test system: Bacillus subtilis; assay: Antibacterial activity against Bacillus subtilis DSM10T assessed as inhibition of bacterial growth measured after 18 to 28 hrs by microbroth dilution assay; assay type: functional, organism-based; details: time 18-28 hrs

Measured: Activity

C[C@H](CC[C@@H](O)C(C)(C)O)[C@H]1C[C@@H](O)[C@H]2[C@@H]3C(=O)C[C@H]4C[C@@H](O)CC[C@]4(C)[C@H]3CC[C@@]21CO
inactive: all assays above

C[C@H](CC[C@@H](O)C(C)(C)O)[C@H]1C[C@@H](O)[C@H]2[C@@H]3C(=O)C[C@H]4C[C@@H](O)CC[C@]4(C)[C@H]3CC[C@@]21C
inactive: all assays above
